Measurements taken from patent publication US9688642B2, “Substituted pyrazines as GPR40 agonists” (Janssen Pharmaceutica NV, priority 2014, dated 2017).
Values joined by “and” are separate entries in the source; they are usually repeats but may differ in a detail not shown here. Equal values may be shown once.

Key:
[1] = target: rat GPR40 (Rattus norvegicus (Rat), UniProt Q8K3T4); experiment: GPR40 calcium flux assay, HEK293 cells stably expressing rat GPR40; type: cell-based; settings: transfected HEK293 cells stably expressing rat GPR40; individual determinations listed; read-out: rGPR40 Ca2+ Assay EC50
Method: (§1) Compounds were tested in a calcium flux assay using transfected HEK293 cells stably expressing either human GPR40 or rat GPR40. Human GPR40 expressing cells were cultured in DMEM-High Glucose media supplemented with 10% fetal bovine serum, 1×L-Glutamine, 1× Penicillin/Streptomycin and 500 μg/mL G418. Rat GPR40 expressing cells were cultured in DMEM-High Glucose media supplemented with 10% fetal bovine serum and 1 μg/mL puromycin. Cells were plated into poly-D-lysine coated 384-well plates and cultured overnight in a 37° C. humidified tissue culture incubator under 5% CO2/90% O2 atmosphere. On the day of the experiment, the culture media was replaced with assay buffer (HBSS, 20 mM HEPES, 0.1% BSA) and the cells incubated at 37° C. for 1 h. Calcium-sensitive fluorescent dye (Fluo 8 No-Wash Calcium Dye, ABD Bioquest) was then added and the cells incubated for another 30 min at 37° C. followed by 15 min at room temperature while protected from the light. The cell plate and a plate of diluted compounds of Formula (I) were loaded into a fluorescent plate reader that added compounds onto the cells while measuring the fluorescence intensity of each well. The plate reader recorded fluorescence intensity at 1 second intervals for 8 min and provided the data for analysis in an Excel format. EC50 values were calculated using Prism (GraphPad) software.

[2] = target: human GPR40 (Homo sapiens (Human), UniProt O14842); experiment: GPR40 calcium flux assay, HEK293 cells stably expressing human GPR40; type: cell-based; settings: transfected HEK293 cells stably expressing human GPR40; individual determinations listed; read-out: hGPR40 Ca2+ Assay EC50
Method: as §1

Chain of human GPR40 (O14842 whole entry): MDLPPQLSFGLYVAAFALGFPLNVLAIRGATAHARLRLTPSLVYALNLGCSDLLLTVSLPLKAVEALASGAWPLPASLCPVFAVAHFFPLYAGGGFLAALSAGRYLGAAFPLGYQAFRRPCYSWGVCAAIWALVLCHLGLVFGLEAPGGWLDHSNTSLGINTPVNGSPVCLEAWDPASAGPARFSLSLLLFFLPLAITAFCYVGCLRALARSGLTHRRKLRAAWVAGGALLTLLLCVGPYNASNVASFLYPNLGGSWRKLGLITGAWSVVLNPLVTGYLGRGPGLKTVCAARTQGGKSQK
Chain of rat GPR40 (Q8K3T4 whole entry): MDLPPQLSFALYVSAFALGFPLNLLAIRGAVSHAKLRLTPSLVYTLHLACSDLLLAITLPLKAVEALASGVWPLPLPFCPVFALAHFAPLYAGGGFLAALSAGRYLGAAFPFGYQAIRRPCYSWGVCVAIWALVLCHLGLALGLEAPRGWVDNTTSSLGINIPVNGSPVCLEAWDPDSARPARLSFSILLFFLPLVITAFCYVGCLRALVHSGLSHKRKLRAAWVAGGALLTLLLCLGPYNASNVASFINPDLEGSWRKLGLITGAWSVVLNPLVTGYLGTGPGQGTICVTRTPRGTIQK

SMILES | EC50 [1] | EC50 [2]
COc1ccc(F)c(-c2ncc(COc3cccc([C@@H](CC(=O)O)C4CC4)c3)nc2OC(C)C)c1 [Cpd 29, (3S)-3-cyclopropyl-3-[3-[[5-(2-fluoro-5-methoxy-phenyl)-6-isopropoxy-pyrazin-2-yl]methoxy]phenyl]propanoic acid] | 73 nM (2×) and 56 nM and 98 nM and 62 nM | 39 nM and 30 nM and 21 nM and 26 nM and 23 nM
COc1ccc(F)c(-c2ncc(COc3cccc([C@@H](CC(=O)O)C4CC4)c3)nc2OC2CCCCCC2)c1 [Cpd 27, (3S)-3-[3-[[6-(cycloheptoxy)-5-(2-fluoro-5-methoxy-phenyl)pyrazin-2-yl]methoxy]phenyl]-3-cyclopropyl-propanoic acid] | 48 nM and 34 nM | 28 nM and 21 nM
COc1ccc(F)c(-c2ncc(COc3cccc([C@@H](CC(=O)O)C4CC4)c3)nc2CC(C)C)c1 [Cpd 5, (3S)-3-cyclopropyl-3-[3-[[5-(2-fluoro-5-methoxy-phenyl)-6-isobutyl-pyrazin-2-yl]methoxy]phenyl]propanoic acid] | 12 nM and 10 nM | 3 nM and 2 nM
COc1cccc(-c2ncc(COc3cccc([C@@H](CC(=O)O)C4CC4)c3)nc2C2=CCCC2(C)C)c1F [Cpd 46, (3S)-3-cyclopropyl-3-[3-[[6-(5,5-dimethylcyclopenten-1-yl)-5-(2-fluoro-3-methoxy-phenyl)pyrazin-2-yl]methoxy]phenyl]propanoic acid] | 637 nM and 788 nM | 130 nM and 127 nM
COc1ccc(F)c(-c2ncc(COc3cccc([C@@H](CC(=O)O)C4CC4)c3)nc2CC(C)(C)C)c1 [Cpd 1, (3S)-3-cyclopropyl-3-[3-[[6-(2,2-dimethylpropyl)-5-(2-fluoro-5-methoxy-phenyl)pyrazin-2-yl]methoxy]phenyl]propanoic acid] | 39 nM and 25 nM | 2 nM
COc1cc(-c2ncc(COc3cccc([C@@H](CC(=O)O)C4CC4)c3)nc2C=C(C)C)c(F)cn1 [Cpd 11, (3S)-3-cyclopropyl-3-[3-[[5-(5-fluoro-2-methoxy-4-pyridyl)-6-(2-methylprop-1-enyl)pyrazin-2-yl]methoxy]phenyl]propanoic acid] | 29 nM and 23 nM | 11 nM and 7 nM
COc1cccc(-c2ncc(COc3cccc([C@@H](CC(=O)O)C4CC4)c3)nc2C2=CCCC2(C)C)c1 [Cpd 35, (3S)-3-cyclopropyl-3-[3-[[6-(5,5-dimethylcyclopenten-1-yl)-5-(3-methoxyphenyl)pyrazin-2-yl]methoxy]phenyl]propanoic acid] | 356 nM and 242 nM | 50 nM and 25 nM
COc1ccc(F)c(-c2ncc(COc3cccc([C@@H](CC(=O)O)C4CC4)c3)nc2-c2ccccc2)c1 [Cpd 18, (3S)-3-cyclopropyl-3-[3-[[5-(2-fluoro-5-methoxy-phenyl)-6-phenyl-pyrazin-2-yl]methoxy]phenyl]propanoic acid] | 105 nM and 67 nM | 13 nM and 10 nM
COc1cc(-c2ncc(COc3cccc([C@@H](CC(=O)O)C4CC4)c3)nc2OC2CCCC2)c(F)cn1 [Cpd 16, (3S)-3-[3-[[6-(cyclopentoxy)-5-(5-fluoro-2-methoxy-4-pyridyl)pyrazin-2-yl]methoxy]phenyl]-3-cyclopropyl-propanoic acid] | 38 nM and 36 nM | 11 nM and 10 nM
COc1ccc(F)c(-c2ncc(COc3cccc([C@@H](CC(=O)O)C4CC4)c3)nc2N(C)C(C)C)c1 [Cpd 34, (3S)-3-cyclopropyl-3-[3-[[5-(2-fluoro-5-methoxy-phenyl)-6-[isopropyl(methyl)amino]pyrazin-2-yl]methoxy]phenyl]propanoic acid] | 112 nM and 104 nM and 88 nM and 86 nM | 33 nM and 30 nM
COc1ccc(F)c(-c2ncc(COc3cccc([C@@H](CC(=O)O)C4CC4)c3)nc2OC2CCCCC2)c1 [Cpd 7, (3S)-3-[3-[[6-(cyclohexoxy)-5-(2-fluoro-5-methoxy-phenyl)pyrazin-2-yl]methoxy]phenyl]-3-cyclopropyl-propanoic acid] | 29 nM and 27 nM | 7 nM and 6 nM
COc1cc(-c2ncc(COc3cccc([C@@H](CC(=O)O)C4CC4)c3)nc2OCC(C)(C)C)c(F)cn1 [Cpd 47, (3S)-3-cyclopropyl-3-[3-[[6-(2,2-dimethylpropoxy)-5-(5-fluoro-2-methoxy-4-pyridyl)pyrazin-2-yl]methoxy]phenyl]propanoic acid] | 13 nM and 14 nM | 3 nM
CCCCc1nc(COc2cccc([C@@H](CC(=O)O)C3CC3)c2)cnc1-c1cc(OC)ccc1F [Cpd 3, (3S)-3-[3-[[6-butyl-5-(2-fluoro-5-methoxy-phenyl)pyrazin-2-yl]methoxy]phenyl]-3-cyclopropyl-propanoic acid] | 33 nM and 26 nM | 3 nM and 2 nM
COc1ccc(F)c(-c2ncc(COc3cccc([C@@H](CC(=O)O)C4CC4)c3)nc2-c2ccc(C(C)(C)C)s2)c1 [Cpd 43, (3S)-3-[3-[[6-(5-tert-butyl-2-thienyl)-5-(2-fluoro-5-methoxy-phenyl)pyrazin-2-yl]methoxy]phenyl]-3-cyclopropyl-propanoic acid] | 81 nM and 55 nM | 15 nM and 12 nM
COc1ccc(F)c(-c2ncc(COc3cccc([C@@H](CC(=O)O)C4CC4)c3)nc2OC2CCC2)c1 [Cpd 19, (3S)-3-[3-[[6-(cyclobutoxy)-5-(2-fluoro-5-methoxy-phenyl)pyrazin-2-yl]methoxy]phenyl]-3-cyclopropyl-propanoic acid] | 70 nM and 49 nM | 14 nM and 11 nM
COc1ccc(F)c(-c2ncc(COc3cccc([C@@H](CC(=O)O)C4CC4)c3)nc2OCC(C)(C)C)c1 [Cpd 4, (3S)-3-cyclopropyl-3-[3-[[6-(2,2-dimethylpropoxy)-5-(2-fluoro-5-methoxy-phenyl)pyrazin-2-yl]methoxy]phenyl]propanoic acid] | 13 nM (2×) and 9 nM | 9 nM and 3 nM and 2 nM
COc1ccc(F)c(-c2ncc(COc3cccc([C@@H](CC(=O)O)C4CC4)c3)nc2-c2cccc(C)c2)c1 [Cpd 20, (3S)-3-cyclopropyl-3-[3-[[5-(2-fluoro-5-methoxy-phenyl)-6-(m-tolyl)pyrazin-2-yl]methoxy]phenyl]propanoic acid] | 90 nM and 78 nM | 15 nM and 11 nM
COc1ccc(F)c(-c2ncc(COc3cccc([C@@H](CC(=O)O)C4CC4)c3)nc2NCC(C)(C)C)c1 [Cpd 44, (3S)-3-cyclopropyl-3-[3-[[6-(2,2-dimethylpropylamino)-5-(2-fluoro-5-methoxy-phenyl)pyrazin-2-yl]methoxy]phenyl]propanoic acid] | 59 nM and 69 nM | 17 nM and 11 nM
COc1cc(-c2ncc(COc3cccc([C@@H](CC(=O)O)C4CC4)c3)nc2OCC2CC2)c(F)cn1 [Cpd 48, (3S)-3-cyclopropyl-3-[3-[[6-(cyclopropylmethoxy)-5-(5-fluoro-2-methoxy-4-pyridyl)pyrazin-2-yl]methoxy]phenyl]propanoic acid] | 138 nM and 152 nM | 35 nM and 32 nM
COc1ccc(F)c(-c2ncc(COc3cccc([C@@H](CC(=O)O)C4CC4)c3)nc2OCC2CC2)c1 [Cpd 21, (3S)-3-cyclopropyl-3-[3-[[6-(cyclopropylmethoxy)-5-(2-fluoro-5-methoxy-phenyl)pyrazin-2-yl]methoxy]phenyl]propanoic acid] | 65 nM and 57 nM | 17 nM and 12 nM
COc1ccc(F)c(-c2ncc(COc3cccc([C@@H](CC(=O)O)C4CC4)c3)nc2C2CC2)c1 [Cpd 39, (3S)-3-cyclopropyl-3-[3-[[6-cyclopropyl-5-(2-fluoro-5-methoxy-phenyl)pyrazin-2-yl]methoxy]phenyl]propanoic acid] | 395 nM and 358 nM and 247 nM and 208 nM | 130 nM and 98 nM and 64 nM and 50 nM
COc1ccc(F)c(-c2ncc(COc3cccc([C@@H](CC(=O)O)C4CC4)c3)nc2-c2ccc(C)s2)c1 [Cpd 36, (3S)-3-cyclopropyl-3-[3-[[5-(2-fluoro-5-methoxy-phenyl)-6-(5-methyl-2-thienyl)pyrazin-2-yl]methoxy]phenyl]propanoic acid] | 118 nM and 109 nM and 105 nM and 86 nM | 40 nM and 38 nM
COc1ccc(F)c(-c2ncc(COc3cccc([C@@H](CC(=O)O)C4CC4)c3)nc2-c2ccc(C(C)C)cc2)c1 [Cpd 25, (3S)-3-cyclopropyl-3-[3-[[5-(2-fluoro-5-methoxy-phenyl)-6-(4-isopropylphenyl)pyrazin-2-yl]methoxy]phenyl]propanoic acid] | 45 nM and 40 nM | 23 nM and 18 nM
COc1cc(-c2ncc(COc3cccc([C@@H](CC(=O)O)C4CC4)c3)nc2C2=CCCC2(C)C)ccn1 [Cpd 31, (3S)-3-cyclopropyl-3-[3-[[6-(5,5-dimethylcyclopenten-1-yl)-5-(2-methoxy-4-pyridyl)pyrazin-2-yl]methoxy]phenyl]propanoic acid] | 102 nM and 66 nM | 32 nM and 26 nM
COc1ccc(F)c(-c2ncc(COc3cccc([C@@H](CC(=O)O)C4CC4)c3)nc2OCCC(F)(F)F)c1 [Cpd 32, (3S)-3-cyclopropyl-3-[3-[[5-(2-fluoro-5-methoxy-phenyl)-6-(3,3,3-trifluoropropoxy)pyrazin-2-yl]methoxy]phenyl]propanoic acid] | 119 nM and 94 nM | 30 nM and 28 nM
COc1ccc(F)c(-c2ncc(COc3cccc([C@@H](CC(=O)O)C4CC4)c3)nc2N2CCCCC2)c1 [Cpd 22, (3S)-3-cyclopropyl-3-[3-[[5-(2-fluoro-5-methoxy-phenyl)-6-(1-piperidyl)pyrazin-2-yl]methoxy]phenyl]propanoic acid] | 53 nM and 46 nM and 43 nM and 31 nM | 18 nM and 12 nM
